Measurements from US20040214799A1, “Cancerous metastasis inhibitors containing carbacyclic phosphatidic acid derivatives” (priority 2001, published 2004).
Where “and” joins values, the source holds several entries; their conditions need not be identical. Equal entries are not always repeated.

Tests used:
[1] = system: MM1 cells; details: reported by Mukai et al., Int. J. Cancer 81, 918-922 (1999); cited from earlier work
[2] = system: MM1 cells; assay: Measurement of intracellular cAMP in MM1 cells; type: cell-based, rat; details: 25 μM cPA or 10 μM Forskolin, pretreated with 1 mM IBMX
Method: After a certain time period, 10% ice-cooled TCA was added to stop the reaction. The centrifuged supernatant was washed 4 times with water-saturated diethylether to remove TCA, and then placed under nitrogen gas flow at 60° C. to remove the solvent completely. cAMP in the resultant sample was measured using a cyclic AMP [^3H] assay system (Amersham).

[3] = system: MM1 cells; details: reported by Mukai et al., Int. J. Cancer 81, 918-922 (1999); cited from earlier work; remark: listed apart in the source
[4] = system: MM1 cells; assay: Effect on the proliferation of MM1 cells; type: cell-based, rat; details: 12.5 μM or 25 μM cPA, 10% FBS, 24 hours and 72 hours
Method: 12.5 μM and 25 μM cPA were added to media containing 10% FBS, and then the cells were cultured under conditions of 37° C. and 5% CO2 for 24 hours and 72 hours. The number of the MM1 cells was counted using a hemocytometer.

[5] = system: HT-1080 cells; details: Mukai et al., Int. J. Cancer 81, 918-922 (1999); cited from earlier work
[6] = system: MM1 cells; details: Int. J. Cancer 81, 918-922 (1999), cited from earlier work
[7] = system: Mouse malignant melanoma B16-F0; assay: B16 melanoma hematogenous lung metastasis model; type: in vivo; details: for invasion of lymphocytes into metastatic lesions observed in cases: animals with metastatic lesions; for Metastatic nodules, Abdominal cavity Adipose tissue / Metastatic nodules, Abdominal cavity Adrenal gland / Metastatic nodules, Abdominal cavity Diaphragm / Metastatic nodules, Abdominal cavity Kidney / Metastatic nodules, Abdominal cavity Ovary / Metastatic nodules, Abdominal cavity Spleen / Metastatic nodules, Thoracic cavity / Metastatic nodules, Tissue around glandual clitoris: autopsy day 14, individual animals; for Number of lung tumor nodules, Range (mininum-maximum) / Number of mice having lung tumor nodules: day 14, N 6; for Number of lung tumor nodules: day 14, mean ± S.D.; for Number of lung tumor nodules / Number of mice having metastatic lesions: N 6; for Number of mice having metastatic lesions / Findings: Invasion of lymphocytes into melanoma metastatic lesion: lung histopathology; for Findings: Invasion of lymphocytes into melanoma metastatic lesion: individual animals; for Number of metastatic lesions per section, Large size: major diameter 0.65 mm ≦ and <1.3 mm; for Number of metastatic lesions per section, Large size / Number of metastatic lesions per section, Small size / Number of metastatic lesions per section, Total: mean ± S.D.; for Number of metastatic lesions per section, Small size: major diameter <0.65 mm, left lobe and posterior lobe; for Metastatic nodules, Abdominal cavity Adipose tissue: key: −: Absent; +: Present; for Metastatic nodules, Abdominal cavity Adrenal gland: key: −: Absent; +: Present; for Metastatic nodules, Abdominal cavity Diaphragm: key: −: Absent; +: Present; for Metastatic nodules, Abdominal cavity Kidney: key: −: Absent; +: Present; for Metastatic nodules, Abdominal cavity Ovary: key: −: Absent; +: Present; for Metastatic nodules, Abdominal cavity Spleen: key: −: Absent; +: Present; for Metastatic nodules, Thoracic cavity: key: −: Absent; +: Present; for Metastatic nodules, Tissue around glandual clitoris: key: −: Absent; +: Present
Method: cPA-19 and cPA-20 were used as test substances. 0.1 w/v % BSA/PBS which was prepared by dissolving Albumin, Bovine [essentially Fatty Acid Free] (BSA, Lot No. 89H7604, Sigma chemical company) in Ca^2+ and Mg^2+ free PBS (pH 7.2), was used as a medium After preparation, the solution was sterilized by filtration using a filter (0.22 μm, Millipore). Preparation was performed when used. cPA-5 was used as a positive control substance.
A medium was added in a volume required for a test substance or a positive control substance. Dissolution was performed by ultrasonication, thereby preparing a 0.16 mg/mL solution. The 0.16 mg/mL solution containing a test substance was diluted with a medium, thereby preparing 0.08 and 0.02 mg/mL solutions. All mixtures were prepared when used.
Mice were purchased from CHARLES RIVER JAPAN. INC. The line employed herein was C57BL/6NCrj (sexuality: female). The number of animals kept in stock was 60, and the age of these animals when kept in stock was 4 weeks. […] The environmental conditions for the test system were as follows:
Mouse malignant melanoma B16-F0 was used as a tumor cell. The cell was purchased from Dainippon Pharmaceutical Co., Ltd.
Dulbecco's Modified Eagle's Media containing 10% feral bovine serum and kanamycin were used for culture. […] A medium was added to stop the action of trypsin while pipetting, thereby preparing a cell suspension. The suspension was diluted by one-tenth with a medium for culturing, followed by subculturing until it reached a volume sufficient for grafting.
A cell suspension was prepared by the same technique as the subculture method. Specifically, the cells were washed with a Ca^2+ and Mg^2+ free phosphate buffer [PBS(−)], and then harvested. The harvested cells were suspended in a 10 mL of PBS(−), thereby preparing a cell suspension. The number of cells in the cell suspension was measured to obtain the total cell number. 50 μL of the cell suspension, 100 μL of 0.4% trypan blue liquid and 100 μL of PBS(−) were mixed, and then viable count was measured. The survival rate of the cells was calculated from the viable count and total cell number.
Based on the body weight on the day of the administration of the test substance, mice were grouped into 8 test groups according to the stratified continuous randomization method as shown in Table 2 below.
The mixture was administered via the caudal vein. The number of grafted cells was 5×10^5 cells/body. The dose of the test substance was 0.001, 0.004 or 0.008 mg/body, and the dose of the positive control substance was 0.008 mg/body.
On day 14 after the administration of the test substance, blood was collected from the posterior portion of the abdominal vena cava under isoflurane anesthesia. After the mice were sacrificed by blood-letting, the presence or absence of intrapleural and intraperitoneal metastatic nodules was confirmed. Lungs were extracted, and then fixed with a 10% neutral buffered formalin solution. The number of nodules resulting from lung metastasis was measured under a stereoscopic microscope (magnification: 10 times).
After the measurement of the number of nodules resulting from lung metastasis, samples were paraffin-embedded, and then thin sections were prepared. Hematoxylin eosinic-stained samples were prepared from these sections. The number of metastatic lesions in the certain portions of the left lobe and the posterior lobe was measured, and then the lesions were sorted by size. On the basis of the diameter (0.65 mm) of an object lens (×40), metastatic lesions with major diameters of less than 0.65 mm were classified as having a small size, and those with major diameters of between 0.65 mm or more and less than 1.30 mm were classified as having a large size. Furthermore, the degree of invasion of lymphocytes into metastatic lesions was confirmed qualitatively.
The representative value of each test group was denoted as mean±standard deviation (mean±S.D.). Differences in mean values were examined as follows.

[8] = 0.008 mg/body i.v., autopsy, 6 mice
[9] = 0.001 mg/body i.v., autopsy, 6 mice
[10] = 0.004 mg/body i.v., autopsy, 6 mice

CCCCCCCCCCCCCCCC(=O)OC[C@@H]1COP(=O)(O)O1 [cPA-5, Pal-cPA, reference compound]
suppression of FBS-induced invasion (in words) [1]: strongly suppress | change of intracellular cAMP concentration (in words) [2]: could not be confirmed | intracellular cAMP concentration of MM1 cells (in words) [3]: leads an increase of intracellular cAMP concentration | effect on MM1 cell proliferation (in words) [4]: no effect on MM1 cell proliferation | suppression of serum/LPA-independent invasion of HT-1080 cells (in words) [5]: suppressed | invasion suppressing action on LPA-induced invasion (in words) ([6]; reported by Mukai et al.): strongly suppress | suppressed LPA-induced invasion by ([6]; studied by Mukai et al.): approximately 85% | action of decreasing the number of metastatic lesions (in words) ([7]; 0.008 mg/body i.v.): no action of decreasing the number of metastatic lesions was observed | metastasis / number of metastatic nodules in the lungs versus medium group (in words) ([7]; 0.008 mg/body i.v.): a significant decrease was observed in the number of metastatic nodules | invasion of lymphocytes into metastatic lesions observed in cases ([7]; 0.008 mg/body i.v.): 2 out of 5 | Metastatic nodules, Abdominal cavity Adipose tissue ([7]; 0.008 mg/body i.v.): − | Metastatic nodules, Abdominal cavity Adrenal gland ([7]; 0.008 mg/body i.v.): − | Metastatic nodules, Abdominal cavity Diaphragm ([7]; 0.008 mg/body i.v.): − | Metastatic nodules, Abdominal cavity Kidney ([7]; 0.008 mg/body i.v.): − | Metastatic nodules, Abdominal cavity Ovary ([7]; 0.008 mg/body i.v.): − | Metastatic nodules, Abdominal cavity Spleen ([7]; 0.008 mg/body i.v.): + (3×) and − (3×) | Metastatic nodules, Thoracic cavity ([7]; 0.008 mg/body i.v.): − | Metastatic nodules, Tissue around glandual clitoris ([7]; 0.008 mg/body i.v.): − | cases with metastatic nodules in the spleen [7, 8]: 3 case | metastatic nodules in the thoracic cavity [7, 8]: no metastatic nodules were observed | Number of lung tumor nodules, Range (mininum-maximum) ([7]; 0.008 mg/body i.v.): 5-38 | Number of mice having lung tumor nodules ([7]; 0.008 mg/body i.v.): 6 | Number of lung tumor nodules ([7]; 0.008 mg/body i.v.): 21 ± 13$ | Number of mice having metastatic lesions ([7]; 0.008 mg/body i.v.): 5 | Findings: Invasion of lymphocytes into melanoma metastatic lesion ([7]; 0.008 mg/body i.v.): − (3×) and ++ and + | Number of metastatic lesions per section, Large size ([7]; 0.008 mg/body i.v.): 0.8 ± 0.8 | Number of metastatic lesions per section, Small size ([7]; 0.008 mg/body i.v.): 1.2 ± 0.8 | Number of metastatic lesions per section, Total ([7]; 0.008 mg/body i.v.): 2.0 ± 1.3

carba-ΔPal-cPA [cPA-20]
effect on MM1 cell proliferation (in words) [4]: showed proliferation suppressing activity | invasion of lymphocytes into metastatic lesions observed in cases ([7]; 0.001 mg/body i.v.): 1 out of 4 | Metastatic nodules, Abdominal cavity Adipose tissue ([7]; 0.001 mg/body i.v.): − | Metastatic nodules, Abdominal cavity Adrenal gland ([7]; 0.001 mg/body i.v.): − | Metastatic nodules, Abdominal cavity Diaphragm ([7]; 0.001 mg/body i.v.): − (5×) and + | Metastatic nodules, Abdominal cavity Kidney ([7]; 0.001 mg/body i.v.): − | Metastatic nodules, Abdominal cavity Ovary ([7]; 0.001 mg/body i.v.): − (5×) and + | Metastatic nodules, Abdominal cavity Spleen ([7]; 0.001 mg/body i.v.): − (5×) and + | Metastatic nodules, Thoracic cavity ([7]; 0.001 mg/body i.v.): − (5×) and + | Metastatic nodules, Tissue around glandual clitoris ([7]; 0.001 mg/body i.v.): − (5×) and + | cases with metastatic nodules in the diaphragm [7, 9]: 1 case | cases with metastatic nodules in the ovary [7, 9]: 1 cases | cases with metastatic nodules in the spleen [7, 9]: 1 case | cases with metastatic nodules in the thoracic cavity [7, 9]: 1 case | cases with metastatic nodules in tissue around the glandual clitoris [7, 9]: 1 case | Number of lung tumor nodules, Range (mininum-maximum) ([7]; 0.001 mg/body i.v.): 17-112 | Number of mice having lung tumor nodules ([7]; 0.001 mg/body i.v.): 6 | Number of lung tumor nodules ([7]; 0.001 mg/body i.v.): 58 ± 40 | Number of mice having metastatic lesions ([7]; 0.001 mg/body i.v.): 4 | Findings: Invasion of lymphocytes into melanoma metastatic lesion ([7]; 0.001 mg/body i.v.): − (3×) and ++ | Number of metastatic lesions per section, Large size ([7]; 0.001 mg/body i.v.): 1.2 ± 1.3 | Number of metastatic lesions per section, Small size ([7]; 0.001 mg/body i.v.): 3.2 ± 3.5 | Number of metastatic lesions per section, Total ([7]; 0.001 mg/body i.v.): 4.3 ± 4.6 | number of metastatic nodules of B16-F0 in the lungs versus medium group (in words) ([7]; 0.004 mg/body i.v.): significant decrease in the number of metastatic nodules | invasion of lymphocytes into metastatic lesions observed in cases ([7]; 0.004 mg/body i.v.): no invasions were observed in 1 case | Metastatic nodules, Abdominal cavity Adipose tissue ([7]; 0.004 mg/body i.v.): − | Metastatic nodules, Abdominal cavity Adrenal gland ([7]; 0.004 mg/body i.v.): − | Metastatic nodules, Abdominal cavity Diaphragm ([7]; 0.004 mg/body i.v.): − | Metastatic nodules, Abdominal cavity Kidney ([7]; 0.004 mg/body i.v.): − | Metastatic nodules, Abdominal cavity Ovary ([7]; 0.004 mg/body i.v.): − | Metastatic nodules, Abdominal cavity Spleen ([7]; 0.004 mg/body i.v.): − (5×) and + | Metastatic nodules, Thoracic cavity ([7]; 0.004 mg/body i.v.): − | Metastatic nodules, Tissue around glandual clitoris ([7]; 0.004 mg/body i.v.): − | cases with metastatic nodules in the spleen [7, 10]: 1 case | metastatic nodules in the thoracic cavity [7, 10]: no metastatic nodules were observed | Number of lung tumor nodules, Range (mininum-maximum) ([7]; 0.004 mg/body i.v.): 0-4 | Number of mice having lung tumor nodules ([7]; 0.004 mg/body i.v.): 2 & | Number of lung tumor nodules ([7]; 0.004 mg/body i.v.): 1 ± 2 | Number of mice having metastatic lesions ([7]; 0.004 mg/body i.v.): 1 && | Findings: Invasion of lymphocytes into melanoma metastatic lesion ([7]; 0.004 mg/body i.v.): − | Number of metastatic lesions per section, Large size ([7]; 0.004 mg/body i.v.): 0 ± 0!! | Number of metastatic lesions per section, Small size ([7]; 0.004 mg/body i.v.): 0.2 ± 0.4 | Number of metastatic lesions per section, Total ([7]; 0.004 mg/body i.v.): 0.2 ± 0.4!! | metastasis / number of metastatic nodules in the lungs versus medium group (in words) ([7]; 0.008 mg/body i.v.): almost completely suppressed metastasis | Metastatic nodules, Abdominal cavity Adipose tissue ([7]; 0.008 mg/body i.v.): − | Metastatic nodules, Abdominal cavity Adrenal gland ([7]; 0.008 mg/body i.v.): − | Metastatic nodules, Abdominal cavity Diaphragm ([7]; 0.008 mg/body i.v.): − | Metastatic nodules, Abdominal cavity Kidney ([7]; 0.008 mg/body i.v.): − | Metastatic nodules, Abdominal cavity Ovary ([7]; 0.008 mg/body i.v.): − | Metastatic nodules, Abdominal cavity Spleen ([7]; 0.008 mg/body i.v.): − (5×) and + | Metastatic nodules, Thoracic cavity ([7]; 0.008 mg/body i.v.): − | Metastatic nodules, Tissue around glandual clitoris ([7]; 0.008 mg/body i.v.): − | cases with metastatic nodules in the spleen [7, 8]: 1 case | metastatic nodules in the thoracic cavity [7, 8]: no metastatic nodules were observed | Number of lung tumor nodules, Range (mininum-maximum) ([7]; 0.008 mg/body i.v.): 0-1 | Number of mice having lung tumor nodules ([7]; 0.008 mg/body i.v.): 1 && | Number of lung tumor nodules ([7]; 0.008 mg/body i.v.): 0 ± 0 | Number of mice having metastatic lesions ([7]; 0.008 mg/body i.v.): 0 && | Number of metastatic lesions per section, Large size ([7]; 0.008 mg/body i.v.): 0 ± 0!! | Number of metastatic lesions per section, Small size ([7]; 0.008 mg/body i.v.): 0 ± 0! | Number of metastatic lesions per section, Total ([7]; 0.008 mg/body i.v.): 0 ± 0!! | number of mice having intrapleural or intraperitoneal metastatic nodules, dose dependence (in words) ([7]; 0.001, 0.004 and 0.008 mg/body i.v.): decreased as the dose increased | action of suppressing the lung metastasis of B16-F0 compared with cPA-5 ([7]; 0.004 and 0.008 mg/body i.v.): stronger than that of cPA-5
